Data from PubChem BioAssay AID330 (DTP/NCI, 2004).
“And” between values parts separate entries of the source, which are not always exact repeats. Equal values may be shown once. Toxic doses and inconclusive results are not listed. Rule for the calls: active = survival T/C of 150% or more; inactive = T/C below 125% in these data.

Test system: P388 leukemia ip, CD2F1 mice, survival T/C
Experiment: NCI In Vivo Anticancer Drug Screen. Data for tumor model P388 Leukemia (intraperitoneal) in CD2F1 (CDF1) mice
Details: endpoint: median survival time, higher = longer survival
In short: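 Mice carrying the transplanted tumor received test compound or vehicle. Survival was recorded in each group, and the value is the treated-group measurement divided by that of the vehicle-treated control group.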

[1] = dose: 60.0 mg/kg/injection, schedule: Q01DX005 (ip), vehicle: saline with Tween-80
[2] = dose: 120.0 mg/kg/injection, schedule: Q01DX005 (ip), vehicle: saline with Tween-80
[3] = dose: 240.0 mg/kg/injection, schedule: Q01DX005 (ip), vehicle: saline with Tween-80
[4] = dose: 50.0 mg/kg/injection, schedule: Q01DX005 (ip), vehicle: Klucel (hydroxypropylcellulose) (HPC)
[5] = dose: 100.0 mg/kg/injection, schedule: Q01DX005 (ip), vehicle: Klucel (hydroxypropylcellulose) (HPC)
[6] = dose: 200.0 mg/kg/injection, schedule: Q01DX005 (ip), vehicle: Klucel (hydroxypropylcellulose) (HPC)
[7] = dose: 200.0 mg/kg/injection, schedule: Q01DX009 (ip), vehicle: saline with Tween-80
[8] = dose: 50.0 mg/kg/injection, schedule: Q01DX009 (ip), vehicle: saline with Tween-80
[9] = dose: 100.0 mg/kg/injection, schedule: Q01DX009 (ip), vehicle: saline with Tween-80

Measured: T/C

CC[C@]12CN3CCc4c([nH]c5ccccc45)[C@@](C(=O)OC)(c4cc5c(cc4OC)N(C)[C@H]4[C@@](O)(C(=O)OC)[C@H](OC(C)=O)[C@]6(CC)C=CCN7CC[C@]54[C@@H]76)CC(C3)[C@H]1O2 (some centres not stated)
active: dose: 6.0 mg/kg/injection, schedule: Q01DX009 (ip), vehicle: saline sonified 173 % of control | dose: 6.0 mg/kg/injection, schedule: Q01DX009 (ip), vehicle: saline 156 % of control and 160 % of control | dose: 12.0 mg/kg/injection, schedule: Q01DX009 (ip), vehicle: saline 176 % of control and 220 % of control
inactive: dose: 0.05 mg/kg/injection, schedule: Q01DX009 (ip), vehicle: saline 101 % of control | dose: 0.1 mg/kg/injection, schedule: Q01DX009 (ip), vehicle: saline 104 % of control | dose: 0.2 mg/kg/injection, schedule: Q01DX009 (ip), vehicle: saline 104 % of control | dose: 0.4 mg/kg/injection, schedule: Q01DX009 (ip), vehicle: saline 103 % of control | dose: 0.5 mg/kg/injection, schedule: Q01DX001 (ip), vehicle: water 104 % of control | dose: 0.75 mg/kg/injection, schedule: Q01DX009 (ip), vehicle: saline 114 % of control | dose: 0.8 mg/kg/injection, schedule: Q01DX009 (ip), vehicle: saline 107 % of control | dose: 1.0 mg/kg/injection, schedule: Q01DX001 (ip), vehicle: water 95 % of control | dose: 1.6 mg/kg/injection, schedule: Q01DX009 (ip), vehicle: saline 113 % of control | dose: 2.0 mg/kg/injection, schedule: Q01DX001 (ip), vehicle: water 108 % of control | dose: 3.0 mg/kg/injection, schedule: Q01DX009 (ip), vehicle: saline 117 % of control | dose: 3.2 mg/kg/injection, schedule: Q01DX009 (ip), vehicle: saline 110 % of control | dose: 4.0 mg/kg/injection, schedule: Q01DX001 (ip), vehicle: water 116 % of control | dose: 6.4 mg/kg/injection, schedule: Q01DX009 (ip), vehicle: saline 120 % of control | dose: 8.0 mg/kg/injection, schedule: Q01DX001 (ip), vehicle: water 122 % of control | dose: 12.0 mg/kg/injection, schedule: Q01DX009 (ip), vehicle: saline sonified 121 % of control | dose: 24.0 mg/kg/injection, schedule: Q01DX009 (ip), vehicle: saline 117 % of control

COC(=O)C1C(C)C2CCCCC2CC1(C)O (configuration not stated)
inactive: dose: 100.0 mg/kg/injection, schedule: Q04DX003 (ip), vehicle: Klucel (hydroxypropylcellulose) (HPC) 103 % of control | dose: 200.0 mg/kg/injection, schedule: Q04DX003 (ip), vehicle: Klucel (hydroxypropylcellulose) (HPC) 112 % of control | dose: 400.0 mg/kg/injection, schedule: Q04DX003 (ip), vehicle: Klucel (hydroxypropylcellulose) (HPC) 100 % of control

O=C(/C=C/c1ccc(Cl)cc1)NC1C=Nc2ccc([N+](=O)[O-])cc2NC1=O (configuration not stated)
inactive: [1] 105 % of control | [2] 100 % of control | [3] 98 % of control

NC(=O)C(Cc1ccc(O)cc1)NC(=O)OCc1ccccc1 (configuration not stated)
inactive: [4] 97 % of control | [5] 92 % of control | [6] 97 % of control

N#CC#Cc1cccc(C#CC#N)c1
inactive: dose: 6.25 mg/kg/injection, schedule: Q01DX001 (ip), vehicle: saline with Tween-80 110 % of control | dose: 12.5 mg/kg/injection, schedule: Q01DX001 (ip), vehicle: saline with Tween-80 100 % of control

CCCOc1ccc(C(N)=S)cc1
inactive: dose: 12.5 mg/kg/injection, schedule: Q01DX009 (ip), vehicle: Klucel (hydroxypropylcellulose) (HPC) 98 % of control and 103 % of control | dose: 25.0 mg/kg/injection, schedule: Q01DX009 (ip), vehicle: Klucel (hydroxypropylcellulose) (HPC) 101 % of control and 105 % of control | dose: 50.0 mg/kg/injection, schedule: Q01DX009 (ip), vehicle: Klucel (hydroxypropylcellulose) (HPC) 115 % of control and 120 % of control and 96 % of control | dose: 100.0 mg/kg/injection, schedule: Q01DX009 (ip), vehicle: Klucel (hydroxypropylcellulose) (HPC) 86 % of control

CCCCNC(C)(C)C(SSSC(c1ccco1)C(C)(C)NCCCC)c1ccco1 (configuration not stated)
inactive: dose: 12.5 mg/kg/injection, schedule: Q01DX009 (ip), vehicle: saline 109 % of control | dose: 25.0 mg/kg/injection, schedule: Q01DX009 (ip), vehicle: saline 113 % of control | dose: 50.0 mg/kg/injection, schedule: Q01DX009 (ip), vehicle: saline 113 % of control | dose: 66.0 mg/kg/injection, schedule: Q04DX003 (ip), vehicle: saline 100 % of control | dose: 100.0 mg/kg/injection, schedule: Q04DX003 (ip), vehicle: saline 118 % of control | dose: 150.0 mg/kg/injection, schedule: Q04DX003 (ip), vehicle: saline 109 % of control

CC(C)=Cc1cc(-c2cc(C=C(C)C)[nH]n2)n[nH]1
inactive: [1] 97 % of control | [2] 100 % of control | [3] 102 % of control

COC(=O)c1nc(=S)[nH]c(C(=O)OC)c1C(=O)c1ccc(N2CCN(c3ccc(C(=O)c4c(C(=O)OC)nc(=S)[nH]c4C(=O)OC)cc3)CC2)cc1
inactive: dose: 60.0 mg/kg/injection, schedule: Q01DX005 (ip), vehicle: suspension in saline 99 % of control | dose: 120.0 mg/kg/injection, schedule: Q01DX005 (ip), vehicle: suspension in saline 97 % of control | dose: 240.0 mg/kg/injection, schedule: Q01DX005 (ip), vehicle: suspension in saline 100 % of control

COc1ccc(-c2c3ccc(=O)c(OC)cc3cn2C)cc1OC
inactive: [4] 102 % of control | [5] 94 % of control | [6] 94 % of control

COc1nc(Cl)nc(OC)n1
inactive: [7] 86 % of control

C[C@@H]1CN(c2ccccc2)C[C@H](C)OS(=O)O1 (some centres not stated)
inactive: dose: 50.0 mg/kg/injection, schedule: Q01DX001 (ip), vehicle: Klucel (hydroxypropylcellulose) (HPC) 105 % of control | [4] 96 % of control | dose: 100.0 mg/kg/injection, schedule: Q01DX001 (ip), vehicle: Klucel (hydroxypropylcellulose) (HPC) 103 % of control | [5] 100 % of control | dose: 200.0 mg/kg/injection, schedule: Q01DX001 (ip), vehicle: Klucel (hydroxypropylcellulose) (HPC) 97 % of control | [6] 93 % of control

Cc1cccc(-n2c(-c3ccc([N+](=O)[O-])cc3)csc2=NC(=O)c2cccc([N+](=O)[O-])c2)c1C
inactive: [8] 91 % of control | [9] 87 % of control | [7] 87 % of control

COc1cccc2c1C(=O)c1c(O)c3c(c(O)c1C2=O)C[C@@](O)(C(=O)CO)C[C@@H]3OC1CC(NCc2ccccc2)C(O)C(C)O1 (some centres not stated)
107 % of control and 224 % of control: dose: 6.25 mg/kg/injection, schedule: Q01DX009 (ip), vehicle: water
inactive: dose: 18.0 mg/kg/injection, schedule: Q04DX003 (ip), vehicle: water 105 % of control | dose: 30.0 mg/kg/injection, schedule: Q04DX003 (ip), vehicle: water 94 % of control
active: dose: 0.39 mg/kg/injection, schedule: Q01DX009 (ip), vehicle: water 150 % of control | dose: 0.78 mg/kg/injection, schedule: Q01DX009 (ip), vehicle: water 151 % of control | dose: 1.56 mg/kg/injection, schedule: Q01DX009 (ip), vehicle: water 153 % of control and 158 % of control | dose: 3.13 mg/kg/injection, schedule: Q01DX009 (ip), vehicle: water 175 % of control and 194 % of control | dose: 3.89 mg/kg/injection, schedule: Q04DX003 (ip), vehicle: water 163 % of control | dose: 6.48 mg/kg/injection, schedule: Q04DX003 (ip), vehicle: water 175 % of control | dose: 10.8 mg/kg/injection, schedule: Q04DX003 (ip), vehicle: water 201 % of control

Nc1ccc(C(=O)c2cccs2)cn1
inactive: dose: 50.0 mg/kg/injection, schedule: Q01DX005 (ip), vehicle: distilled water + alcohol 98 % of control | dose: 100.0 mg/kg/injection, schedule: Q01DX005 (ip), vehicle: distilled water + alcohol 104 % of control

COC(=O)Nc1nc2ccc(OCCO)cc2[nH]1
inactive: dose: 25.0 mg/kg/injection, schedule: Q01DX005 (ip), vehicle: DMSO 104 % of control | dose: 50.0 mg/kg/injection, schedule: Q01DX005 (ip), vehicle: DMSO 100 % of control | dose: 100.0 mg/kg/injection, schedule: Q01DX005 (ip), vehicle: DMSO 104 % of control | dose: 200.0 mg/kg/injection, schedule: Q01DX005 (ip), vehicle: DMSO 103 % of control | dose: 400.0 mg/kg/injection, schedule: Q01DX005 (ip), vehicle: DMSO 101 % of control

CCN(CC)c1ccc2nc3ccc(=[N+](CC)CC)cc-3oc2c1
inactive: dose: 7.5 mg/kg/injection, schedule: Q01DX005 (ip), vehicle: saline 105 % of control | dose: 15.0 mg/kg/injection, schedule: Q01DX005 (ip), vehicle: saline 109 % of control

CCN(CC)c1cc(-c2ccccc2)oc(=O)c1Cl
inactive: [8] 100 % of control | [9] 93 % of control | [7] 97 % of control
